Experimental data reported in US7777030B2, “Compositions and methods for the treatment and prevention of disease” (Centre National de la Recherge Scientifique (CNRS), priority 2005, dated 2010).

What was measured:
[1] = system: malaria liver stage (LS) parasites; assay: effect on sporozoite invasion and malaria liver stage development in hepatocytes; format: cell-based; details: compounds added at sporozoite invasion and during liver stage development; schizonts counted in 48 hours cultures; FIG. 5
[2] = system: primary mouse hepatocyte culture; assay: toxicity on primary mouse hepatocyte culture; format: cell-based; details: tested at different doses (6, 25-100 μg/ml)

| SMILES | effect on liver parasites / LS development (schizont number) [1] | toxicity on primary mouse hepatocyte culture [2] |
| --- | --- | --- |
| CN1CNC(=O)NC(Cc2ccccc2)C1=O (stereo not shown) [4b] | inhibit significantly and repeatedly | non toxic |
| CN1CN(Cc2ccccc2)C(=O)NC(Cc2ccccc2)C1=O (stereo not shown) [8a] | inhibit significantly and repeatedly | non toxic |
